Marks after values point to notes of the source that are not given here.
What was measured:
[1] = system: Human rectal adenocarcinoma cells SW837; assay: Cell survival rate of SW837 cells under drug combination, Cell Titer-Glo; type: cell-based; details: 120 h
Description: (§1) The cell survival rate (%) after the drug combinations was calculated by the formula: cell survival rate=(1−(RLU of DMSO control−RLU of treatment)/(RLU of DMSO control−RLU of blank control))×100%. The DMSO control was a vehicle control with no drugs, and the blank control was a medium control with no drugs and vehicles.
(§2) The value corresponding to the coordinates is the cell survival rate of the combination groups with corresponding concentrations of the two drugs.
(§3) The effect of the drug combinations on the tumor cells was evaluated by statistical methods. The statistical software used was R systems, and the statistical models were Bliss, HSA, Loewe, and ZIP. A synergic value>5 indicates a synergic effect, a synergic value>10 indicates a significant synergic effect, a synergic value<−5 indicates an antagonistic effect, and a synergic value<−10 indicates a significant antagonistic effect. The final efficacy of the drug combinations was further judged by the synergic value.
(§4) Human rectal adenocarcinoma cells SW837 were plated into a 384-well plate at 800 cells/well. […] After 120 h, the cell viability was measured by Cell Titer-Glo method. The Cell Titer-Glo reagent was added at 30 μL/well. The plate was shaken for 2 min and left to stand for 10 min. The RLU value was read on the Envision system.
as §4

[2] = system: Human non-small cell lung cancer cells LU99; assay: Cell survival rate of LU99 cells under drug combination, Cell Titer-Glo; type: cell-based; details: 120 h
Description: as §1, §2, §3
as §4, with “non-small cell lung cancer” for “rectal adenocarcinoma”, “LU99” for “SW837”, “600” for “800”
as §4, with “non-small cell lung cancer” for “rectal adenocarcinoma”, “LU99” for “SW837”, “600” for “800”

[3] = system: Human rectal adenocarcinoma cells SW1463; assay: Cell survival rate of SW1463 cells under drug combination, Cell Titer-Glo; type: cell-based; details: 120 h
Description: as §1, §2, §3
(§5) After 120 h, the cell viability was measured by Cell Titer-Glo method. The Cell Titer-Glo reagent was added at 30 μL/well. The plate was shaken for 2 min and left to stand for 10 min. The RLU value was read on the Envision system.

[4] = system: mouse colon cancer CT26 KRAS G12C KI cell subcutaneous graft tumor model; assay: In vivo anti-tumor evaluation in mouse CT26 KRASG12C KI subcutaneous graft tumor model
Description: The animals and the main evaluation indexes were the same as those of Example 8.
Preparation: the compound of the formula (II) was prepared in a vehicle of 5% DMSO+10% Solutol HS 15+85% (6% HP—β-CD); mPD1 was prepared in PBS.
On day 12 after cell inoculation (DO), the grouping and treatment were started after the mean tumor volume reached 69 mm^3. 32 tumor-bearing mice were selected, randomized into 4 groups of 8 mice each as per the tumor volume and the body weight, and treated according to the administration regimen shown in Table 3. The administration volume in mice was 10 mL/kg. The mice were weighed on an electronic balance twice weekly and the tumor volume was measured with a vernier caliper twice weekly.
The main evaluation indexes were tumor volume, TGI, TWI, and RCBW.

[5] = system: NCI-H2122 human non-small cell lung cancer model; assay: In vivo anti-tumor evaluation in NCI-H2122 human non-small cell lung cancer model; set-up: species or system BALB/c nude mice
Description: During the study, the health of the animals was observed daily. If there was a 10% weight loss in the animals, the administration dose was halved; if there was a 15% weight loss, the […] until a normal body weight was restored; or if the tumor volume in the animals exceeded 2,000 mm^3, the mouse was euthanized immediately. If the health condition met the following criteria, euthanasia was performed by the veterinarian:
BALB/c nude mice, aged 6-8 weeks, female, purchased from Beijing Vital River Laboratory Animal Technology Co., Ltd., Certificate No. 20170011008676, and housed in an SPF-grade environment.
NCI-H2122 cells were cultured in an RPMI 1640 medium containing 10% of FBS and 1% of penicillin-streptomycin in an incubator at 37° C. and 5% CO2. […] When the cells were in the logarithmic growth phase and the confluence reached […], the cells were collected and counted. The cells were collected and adjusted to a final concentration of 2.0×10^6 cells/mL. Mice were grafted subcutaneously at the right dorsal region in a volume of 0.15 mL/3×10^5 cells/mouse. When the tumors grew to an average size of about 242 mm^3 (D5 after grafting), 32 tumor-bearing mice were selected, randomized into 4 groups of 8 mice each as per the tumor volume and the body weight, and treated according to the administration regimen shown in Table 1. The dose in mice was 10 mL/kg. The mice were weighed on an electronic balance twice weekly and the tumor volume was measured with a vernier caliper twice weekly. The study was ended on D17 after grafting, and the mice were euthanized after tumor volume measurement.
Tumor volume (TV)=(L×W^2)/2, where L denotes the long diameter of the tumor, and W is the short diameter of the tumor.
TWI=(1−TWtreatment/Dx/TWcontrol/Dx)×100%, where TWcontrol denotes the average tumor weight (g) of the control group, and TWtreatment denotes the average tumor weight (g) of the treatment group.
RCBW (%)=(BWi−BW0)/BW0×100%, where BWi is the body weight of a mouse on a specific day and BW0 is the body weight of the mouse at the baseline.
All experimental data analysis and graphing were performed using GraphPad Prism software (GraphPad Software). Tumor volumes and the body weights of the animals in all groups were statistically compared using two-way ANOVA, Dunnett's multiple comparisons test. Tumor weights of the groups at the endpoint were statistically compared using one-way ANOVA, Dunnett's multiple comparisons test. P<0.05 denotes a statistically significant difference. The tumor volume and weight and body weight of animals are expressed by mean±standard error (SEM).

[6] = system: Human non-small cell lung cancer cells NCI-H2122; assay: Cell survival rate of NCI-H2122 cells under drug combination, Cell Titer-Glo; type: cell-based; details: 120 h
Description: as §1
The value corresponding to the coordinates is the cell survival rate of the combination groups with corresponding concentrations of the two drugs. For example, in FIG. 1, when the horizontal coordinate read is 0 nM and the vertical coordinate read is 10.03 nM, the value corresponding to the coordinates is 86.1.
as §3
Human non-small cell lung cancer cells NCI-H2122 were plated into a 384-well plate at 600 cells/well. […] After 120 h, the cell viability was measured by Cell Titer-Glo method. […] The RLU value was read on the Envision system.

[7] = system: Human non-small cell lung cancer cells SW1573; assay: Cell survival rate of SW1573 cells under drug combination, Cell Titer-Glo; type: cell-based; details: 120 h
Description: as §1, §2, §3, §5

[8] = Day 33, compound of formula (II) 3 mpk (D 0-9) & 1 mpk (D 10-20) p.o. q.d., mPD1 10 mpk i.p. biw
[9] = after 21 days treatment, compound of formula (II) 3 mpk (D 0-9) & 1 mpk (D 10-20) p.o. q.d., mPD1 10 mpk i.p. biw
[10] = Day 17, compound of formula (II) 10 mpk p.o. q.d., cetuximab 1 mpk i.p. biw
[11] = after 12 days treatment, mean ± SEM, compound of formula (II) 10 mpk p.o. q.d., cetuximab 1 mpk i.p. biw

Cc1nc(NC(=O)N2CCC[C@H]2C(N)=O)sc1-c1ccnc(C(C)(C)C(F)(F)F)c1 [BYL719, Alpelisib, reference compound]
cell survival rate ([1]; SW837, Example 2, 10000 nM BYL719 alone): 62.9% | cell survival rate ([2]; LU99, Example 1, 1000 nM BYL719 alone): 62.6%

C=CC(=O)N1CCN2c3c(c(=O)n(-c4c(C)ccnc4C(C)C)c4nc(-c5c(O)cccc5F)c(Cl)cc34)N(C)C(=O)[C@H]2C1 [Compound of formula (II), (4aR,8R)-3-acryloyl-11-chloro-10-(2-fluoro-6-hydroxyphenyl)-8-(2-isopropyl-4-methylpyridin-3-yl)-6-methyl-2,3,4,4a,6,8-hexahydro-1H-pyrazino[1′,2′: 4,5] pyrazino[2,3-c][1,8]naphthyridine-5,7-dione]
cell survival rate ([1]; SW837, Example 2, 31.69 nM compound of formula (II) alone): 60.2% | cell survival rate ([1]; SW837, Example 4, 31.69 nM compound of formula (II) alone): 56.2% | cell survival rate ([2]; LU99, Example 1, 100 nM compound of formula (II) alone): 83% | cell survival rate ([2]; LU99, Example 3, 100 nM compound of formula (II) alone): 83.8% | cell survival rate ([2]; LU99, FIG. 1, coordinates 0 nM / 10.03 nM, stated as compound of formula (II) alone (BYL719 0 nM)): 86.1% | cell survival rate ([3]; SW1463, Example 5, 31.69 nM compound of formula (II) alone): 43.2% | tumor inhibitory effect (in words) ([4]; CT26 KRAS G12C KI subcutaneous graft tumor model): mild tumor inhibitory effects | TGI [4, 8]: 46.74% | TWI [4, 8]: 35.38% | Body weight After grafting Day 33 [4, 9]: 22.76 ± 0.37 g | Tumor volume Day 33 after grafting [4, 9]: 1065.38 ± 251.12 mm^3 | Tumor volume Day 33 after grafting ([4]; after 21 days treatment, compound of formula (II) 3 mpk (D 0-9) & 1 mpk (D 10-20) p.o. q.d., mPD1 10 mpk i.p. biw, listed as compound of formula (II)): 1,065 mm^3 | Tumor volume After grafting Day 12 ([4]; baseline at grouping (D0), mean ± SEM, n=8): 68.75 ± 6.65 mm^3 | Body weight Day 12 after grafting ([4]; baseline, mean ± SEM): 21.29 ± 0.29 g | Tumor weight After grafting Day 33 ([4]; endpoint, compound of formula (II) 3 mpk (D 0-9) & 1 mpk (D 10-20) p.o. q.d., mPD1 10 mpk i.p. biw): 1.84 ± 1.12 g | T/C ([4]; mean tumor volume at end of study, compound of formula (II) 3 mpk (D 0-9) & 1 mpk (D 10-20) p.o. q.d., mPD1 10 mpk i.p. biw): 54.92% | TGI [5, 10]: 73.81% | TWI [5, 10]: 49.37% | Body weight After grafting Day 17 [5, 11]: 20.97 ± 0.38 g | Tumor volume After grafting Day17 [5, 11]: 479.14 ± 58.84*** mm^3 | Body weight After grafting Day 5 ([5]; baseline, mean ± SEM): 21.16 ± 0.47 g | Tumor weight After grafting Day 17 ([5]; endpoint, mean ± SEM, compound of formula (II) 10 mpk p.o. q.d., cetuximab 1 mpk i.p. biw): 0.30 ± 0.04 g | cell survival rate ([6]; NCI-H2122, Example 7, 3.17 nM compound of formula (II) alone): 60.7% | cell survival rate ([7]; SW1573, Example 6, 100 nM compound of formula (II) alone): 86.4%

CS(=O)(=O)N1CCN(Cc2cc3nc(-c4cccc5[nH]ncc45)nc(N4CCOCC4)c3s2)CC1 [GDC0941, Pictilisib, reference compound]
cell survival rate ([1]; SW837, Example 4, 1000 nM GDC0941 alone): 67.6% | cell survival rate ([2]; LU99, Example 3, 100 nM GDC0941 alone): 85.4% | cell survival rate ([3]; SW1463, Example 5, 1000 nM GDC0941 alone): 64.6% | cell survival rate ([7]; SW1573, Example 6, 3164 nM GDC0941 alone): 46%

CC1(C)CC[C@H](Nc2ncc(C(F)(F)F)c(-c3c[nH]c4c(P(C)(C)=O)c(C#N)ccc34)n2)CN1 [SY-5609, reference compound]
cell survival rate ([6]; NCI-H2122, Example 7, 31.69 nM SY-5609 alone): 57.5%
